Consider 26 molecules from patent publication US12630552B2, “Inhibitors of KRAS G12C” (BEIGENE, LTD., priority 2019, dated 2026).

Bounds are passed on as bounds.

T1 sequence (P01116 1-169 isoform P01116-2 G12C/C51S/C80L/C118S): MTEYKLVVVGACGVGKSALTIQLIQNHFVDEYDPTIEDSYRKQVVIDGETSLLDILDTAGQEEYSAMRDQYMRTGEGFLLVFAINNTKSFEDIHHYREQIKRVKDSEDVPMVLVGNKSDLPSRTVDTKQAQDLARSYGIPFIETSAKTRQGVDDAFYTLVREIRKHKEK

The test has as its target T1, KRAS (aa 1-169) G12C, C51S, C80L, C118S (Homo sapiens, UniProt P01116, C118S/C51S/C80L/G12C).
T1 construct: The KRAS (aa 1-169) G12C, C51S, C80L, C118S with a His-tag; made in house
Kind of test: KRAS G12C SOS1-mediated nucleotide exchange / GST-cRaf RBD binding FRET assay. The class given is biochemical. The following applies: GDP-loaded KRAS G12C pre-incubated with compound at 24° C. for 3 hrs; SOS1, GTPγS and GST-cRaf RBD added; FRET 665 nm/620 nm. The procedure: Biochemical Functional Assay:
The KRAS (aa 1-169) G12C, C51S, C80L, C118S with a His-tag was expressed, purified and loaded with GDP in house. All protein and substrate solutions were prepared in assay buffer containing 25 mM HEPES pH7.5, 10 mM MgCl2, and 0.01% Triton X-100. Purified GDP-loaded KRAS (aa 1-169) G12C, C51S, C80L, C118S protein was pre-incubated with a serially diluted compound at 24° C. for 3 hrs. Purified SOS1 (aa 564-1049) protein, GTPγS (Sigma) and GST-cRaf RBD (aa 1-149) were then added to each well and incubated at 24° C. for additional 3 hrs. […] Following the incubation, Mab Anti-6HIS-Tb cryptate (Cisbio) and Mab Anti GST-XL665 (Cisbio) were added and further incubated at 24° C. for 3 hrs. The binding interaction between active GTPγS KRAS G12C and GST-cRaf RBD brings the Tb and XL665 into close proximity enabling an increased FRET signal (Ex337 nm, Em665 nm/620 nm). The inhibition percentage of nucleotide exchange reaction in presence of increasing concentrations of compounds was calculated based on the ratio of fluorescence at 665 nm to that at 620 nm detected on a BMG PHERAstar FSX instrument. The IC50 value of each compound was calculated from fitting the data to the four-parameter logistic model by Dotmatics.
As usually defined, the IC50 is the concentration that inhibits the measured activity by half. Consider `C=CC(=O)N1CCN(c2nc(OC[C@@H]3CCCN3C)nc3c2CN(C(=O)c2c(O)cccc2F)C3)C[C@@H]1CC#N` [Example 36, 2-((S)-1-acryloyl-4-(6-(2-fluoro-6-hydroxybenzoyl)-2-(((S)-1-methylpyrrolidin-2-yl)methoxy)-6,7-dihydro-5H-pyrrolo[3,4-d]pyrimidin-4-yl)piperazin-2-yl)acetonitrile], for which the IC50 is 0.238 µM.
The figure for `C=CC(=O)N1CCN(c2nc(OC[C@@H]3CCCN3C)nc3c2CN(C(=O)c2cccc4cccc(Br)c24)C3)C[C@@H]1CC#N` [Example 52] is 0.00851 µM; for `C=CC(=O)N1CCN(c2nc(OC[C@@H]3CCCN3C)nc3c2CN(C(=O)c2cccc4cccc(C)c24)C3)C[C@@H]1CC#N` [Example 33, 2-((S)-1-acryloyl-4-(6-(8-methyl-1-naphthoyl)-2-(((S)-1-methylpyrrolidin-2-yl)methoxy)-6,7-dihydro-5H-pyrrolo[3,4-d]pyrimidin-4-yl)piperazin-2-yl)acetonitrile] it is 0.0224 µM; for `C=CC(=O)N1CCN(c2nc(OC3CCN(C)CC3)nc3c2CN(Cc2cccc4ccccc24)C3)C[C@@H]1CC#N` [Example 18, (S)-2-(1-acryloyl-4-(2-((1-methylpiperidin-4-yl)oxy)-6-(naphthalen-1-ylmethyl)-6,7-dihydro-5H-pyrrolo[3,4-d]pyrimidin-4-yl)piperazin-2-yl)acetonitrile] it is 1.56 µM.
As for `C=CC(=O)N1CCN(c2nc(OC[C@@H]3CCCN3C)nc3c2CN(Cc2c(O)ccc4ccccc24)C3)C[C@@H]1CC#N` [Example 42, 2-((S)-1-acryloyl-4-(6-((2-hydroxynaphthalen-1-yl)methyl)-2-(((S)-1-methylpyrrolidin-2-yl)methoxy)-6,7-dihydro-5H-pyrrolo[3,4-d]pyrimidin-4-yl)piperazin-2-yl)acetonitrile], the IC50 was 9.98 µM.
To `C=CC(=O)N1CCN(c2nc(OC[C@@H]3CCCN3C)nc3c2CN(Cc2cccc4cccc(Cl)c24)C3)C[C@@H]1CC#N` [Example 9, 2-((S)-1-acryloyl-4-(6-((8-chloronaphthalen-1-yl)methyl)-2-(((S)-1-methylpyrrolidin-2-yl)methoxy)-6,7-dihydro-5H-pyrrolo[3,4-d]pyrimidin-4-yl)piperazin-2-yl)acetonitrile] belongs 0.265 µM; to `C=CC(=O)N1CCN(c2nc(OC[C@@H]3CCCN3C)nc3c2CN(c2cccc4c2CCC4)C3)C[C@@H]1CC#N` [Example 27, 2-((S)-1-acryloyl-4-(6-(2,3-dihydro-1H-inden-4-yl)-2-(((S)-1-methylpyrrolidin-2-yl)methoxy)-6,7-dihydro-5H-pyrrolo[3,4-d]pyrimidin-4-yl)piperazin-2-yl)acetonitrile], 3.72 µM.
To `C=CC(=O)N1CCN(c2nc(OC[C@@H]3CCCN3C)nc3c2CN(Cc2c(C)ccc4[nH]ncc24)C3)C[C@@H]1CC#N` [Example 41, 2-((S)-1-acryloyl-4-(6-((5-methyl-1H-indazol-4-yl)methyl)-2-(((S)-1-methylpyrrolidin-2-yl)methoxy)-6,7-dihydro-5H-pyrrolo[3,4-d]pyrimidin-4-yl)piperazin-2-yl)acetonitrile] belongs 0.0772 µM; to `C=CC(=O)N1CCN(c2nc(OC[C@@H]3CCCN3C)nc3c2CN(c2cccc4cccc(C)c24)C3)C[C@@H]1CC#N` [Example 28, 2-((S)-1-acryloyl-4-(6-(8-methylnaphthalen-1-yl)-2-(((S)-1-methylpyrrolidin-2-yl)methoxy)-6,7-dihydro-5H-pyrrolo[3,4-d]pyrimidin-4-yl)piperazin-2-yl)acetonitrile], 0.178 µM; to `C=CC(=O)N1CCN(c2nc(OC[C@@H]3CCCN3C)nc3c2CN(C2c4ccccc4-c4ccccc42)C3)C[C@@H]1CC#N` [Example 40, 2-((S)-4-(6-(9H-fluoren-9-yl)-2-(((S)-1-methylpyrrolidin-2-yl)methoxy)-6,7-dihydro-5H-pyrrolo[3,4-d]pyrimidin-4-yl)-1-acryloylpiperazin-2-yl)acetonitrile], 1.51 µM.
As for `C=CC(=O)N1CCN(c2nc(N3CC(N(C)C)C3)nc3c2CN(Cc2cccc4ccccc24)C3)C[C@@H]1CC#N` [Example 19, (S)-2-(1-acryloyl-4-(2-(3-(dimethylamino)azetidin-1-yl)-6-(naphthalen-1-ylmethyl)-6,7-dihydro-5H-pyrrolo[3,4-d]pyrimidin-4-yl)piperazin-2-yl)acetonitrile], the IC50 worked out at 0.976 µM.
For the molecule `C=CS(=O)(=O)N1CCN(c2nc(OC[C@@H]3CCCN3C)nc3c2CN(Cc2cccc4ccccc24)C3)CC1` [Example 3, (S)-2-((1-methylpyrrolidin-2-yl)methoxy)-6-(naphthalen-1-ylmethyl)-4-(4-(vinylsulfonyl)piperazin-1-yl)-6,7-dihydro-5H-pyrrolo[3,4-d]pyrimidine], the IC50 turned out to be 23.7 µM.
The figure for `C=CC(=O)N1CCN(c2nc(OC[C@@H]3CCCN3C)nc3c2CN(C(=O)c2cccc4ccccc24)C3)C[C@@H]1CC#N` [Example 32, 2-((S)-4-(6-(1-naphthoyl)-2-(((S)-1-methylpyrrolidin-2-yl)methoxy)-6,7-dihydro-5H-pyrrolo[3,4-d]pyrimidin-4-yl)-1-acryloylpiperazin-2-yl)acetonitrile] is 0.0395 µM.
The figure for `C=CC(=O)N1CCN(c2nc(OC[C@@H]3CCCN3C)nc3c2CN(C(=O)c2cc(O)ccc2F)C3)C[C@@H]1CC#N` [Example 46] is 0.172 µM; for `C=CC(=O)N1CCN(c2nc(OC[C@@H]3CCCN3C)nc3c2CN(C2Cc4cccc5cc(O)cc2c45)C3)C[C@@H]1CC#N` (some centres unmarked) [Example 55] it is under 0.0051 µM; for `C=CC(=O)N1CCN(c2nc(OC[C@@H]3CCCN3C)nc3c2CN(Cc2ccc4ccccc4c2)C3)C[C@@H]1CC#N` [Example 20, 2-((S)-1-acryloyl-4-(2-(((S)-1-methylpyrrolidin-2-yl)methoxy)-6-(naphthalen-2-ylmethyl)-6,7-dihydro-5H-pyrrolo[3,4-d]pyrimidin-4-yl)piperazin-2-yl)acetonitrile] it is 2.88 µM.
On to `C=CC(=O)N1CCN(c2nc(OC[C@@H]3C[C@@H](O)CN3C)nc3c2CN(C2Cc4cccc5cccc2c45)C3)C[C@@H]1CC#N` (some centres unmarked) [Example 51], for which the IC50 is 0.0161 µM.
On to `C=CC(=O)N1CCN(c2nc(OC[C@@H]3CCCN3C)nc3c2CN(C(=O)c2c(C)ccc4ccccc24)C3)C[C@@H]1CC#N` [Example 34, 2-((S)-1-acryloyl-4-(6-(2-methyl-1-naphthoyl)-2-(((S)-1-methylpyrrolidin-2-yl)methoxy)-6,7-dihydro-5H-pyrrolo[3,4-d]pyrimidin-4_yl)piperazin-2-yl)acetonitrile], for which the half-maximal inhibitory concentration (IC50) amounted to 0.505 µM.
The figure for `C=CC(=O)N1CCN(c2nc(OC3CCN(C)CC3)nc3c2CN(C2Cc4cccc5cccc2c45)C3)CC1CC#N` (single isomer, unassigned) [Example 17 (P1)] is 2.2 µM; for `C=CC(=O)N1CCN(c2nc(OC[C@@H]3CCCN3C)nc3c2CN(C(=O)c2cccc4cccc(Cl)c24)C3)C[C@@H]1CC#N` [Example 30, 2-((S)-1-acryloyl-4-(6-(8-chloro-1-naphthoyl)-2-(((S)-1-methylpyrrolidin-2-yl)methoxy)-6,7-dihydro-5H-pyrrolo[3,4-d]pyrimidin-4-yl)piperazin-2-yl)acetonitrile] it is 0.015 µM; for `CN(C)C/C=C/C(=O)N1CCN(c2nc(OC[C@@H]3CCCN3C)nc3c2CN(Cc2cccc4ccccc24)C3)CC1` [Example 2, (S, E)-4-(dimethylamino)-1-(4-(2-((1-methylpyrrolidin-2-yl)methoxy)-6-(naphthalen-1-ylmethyl)-6,7-dihydro-5H-pyrrolo[3,4-d]pyrimidin-4-yl)piperazin-1-yl)but-2-en-1-one] it is 46 µM.
The figure for `C=CC(=O)N1CCN(c2nc(OC[C@@H]3CCCN3C)nc3c2CN(c2ccc4ccccc4c2)C3)C[C@@H]1CC#N` [Example 26] is 1.08 µM; for `C=CC(=O)N1CCN(c2nc(OC[C@@H]3CCCN3C)nc3c2CN(Cc2cccc4ccccc24)C3)CC1` [Example 1, (S)-1-(4-(2-((1-methylpyrrolidin-2-yl)methoxy)-6-(naphthalen-1-ylmethyl)-6,7-dihydro-5H-pyrrolo[3,4-d]pyrimidin-4-yl)piperazin-1-yl)prop-2-en-1-one] it is 3.28 µM.
Turning to `C=CC(=O)N1CCN(c2nc(OC[C@@H]3CCCN3C)nc3c2CN(C(=O)c2cccc(C)c2Cl)C3)C[C@@H]1CC#N` [Example 37, 2-((S)-1-acryloyl-4-(6-(2-chloro-3-methylbenzoyl)-2-(((S)-1-methylpyrrolidin-2-yl)methoxy)-6,7-dihydro-5H-pyrrolo[3,4-d]pyrimidin-4-yl)piperazin-2-yl)acetonitrile], the 50% inhibitory concentration (IC50) is 0.0279 µM.
The figure for `C=CC(=O)N1CCN(c2nc(OCC3CCCN3C)nc3c2CN(C2Cc4cccc5cccc2c45)C3)CC1CC#N` (single isomer, unassigned) [Example 15 (P1)] is 0.492 µM; for `C=CC(=O)N1CCN(c2nc(OC[C@@H]3CCCN3C)nc3c2CN(Cc2ccccc2)C3=O)C[C@@H]1CC#N` [Example 44] it is 9.01 µM.
